Patent publication US8697690B2, “Isoindolone M1 receptor positive allosteric modulators” (Merck Sharp & Dohme Corp., priority 2010, dated 2014)

What follows are compounds tested against T1, acetylcholine muscarinic M1 receptor (Homo sapiens, UniProt P11229) (assay: muscarinic FLIPR assay: intracellular calcium in CHOnfat/hM1 cells, potentiation of EC20 acetylcholine). Conditions: IP = inflection point calculated from FLIPR values, 4 min preincubation, then EC20 acetylcholine (3 nM final).
T1 construct: expressed in transfected cells; host or cells: CHOnfat cells (CHO with NFAT reporter background), Geneticin-selected
T1 sequence (P11229 1-460): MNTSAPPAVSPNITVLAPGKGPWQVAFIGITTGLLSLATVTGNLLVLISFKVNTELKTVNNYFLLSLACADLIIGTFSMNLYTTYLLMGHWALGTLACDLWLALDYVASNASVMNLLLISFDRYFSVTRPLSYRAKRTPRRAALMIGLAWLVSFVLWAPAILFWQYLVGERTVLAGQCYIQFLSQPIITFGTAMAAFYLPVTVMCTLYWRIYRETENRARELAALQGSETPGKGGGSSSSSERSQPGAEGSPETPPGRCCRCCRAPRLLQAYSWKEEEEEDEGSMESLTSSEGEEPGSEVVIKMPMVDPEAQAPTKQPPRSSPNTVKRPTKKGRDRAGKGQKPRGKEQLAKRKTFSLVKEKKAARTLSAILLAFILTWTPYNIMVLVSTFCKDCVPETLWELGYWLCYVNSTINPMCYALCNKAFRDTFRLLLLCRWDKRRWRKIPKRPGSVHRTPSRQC
Format: cell-based
Experimental: The assay studies the effect of one or several concentrations of test compounds on basal or acetylcholine-stimulated Ca^2+ levels using FLIPR.
Compounds are prepared and subjected to a preincubation period of 4 min. Thereafter, a single EC20 concentration of acetylcholine is added to each well (3 nM final). The intracellular Ca^2+ level of each sample is measured and compared to an acetylcholine control to determine any modulatory activity.
Cells: CHOnfat/hM1, hM2, hM3 or hM4 cells are plated 24 hr before the assay at a density of 18,000 cells/well (100 μL) in a 384 well plate. CHOnfat/hM1 and CHOnfat/hM3 Growth Medium: 90% DMEM (Hi Glucose); 10% HI FBS; 2 mM L-glutamine; 0.1 mM NEAA; Pen-Strep; and 1 mg/ml Geneticin, are added. For M2Gqi5CHOnfat and M4Gqi5CHOnfat cells, an additional 600 ug/ml hygromycin is added.
Equipment: 384 well plate, 120 μL addition plate; 96-well Whatman 2 ml Uniplate Incubator, 37° C., 5% CO2; Skatron EMBLA-384 Plate Washer; Multimek Pipetting System; Genesis Freedom 200 System; Mosquito System; Temo Nanoliter Pipetting System; and FLIPR^384 Fluorometric Imaging Plate Reader System are used.
Buffers. Assay Buffer: Hanks Balanced Salt Solution, with 20 mM Hepes, 2.5 mM Probenecid (Sigma P-8761) first dissolved in 1 N NaOH, 1% Bovine Serum Albumin (Sigma A-9647). Dye Loading Buffer: Assay Buffer plus 1% Fetal Bovine Serum and Fluo-4AM/Pluronic Acid Mixture. 2 mM Fluo-4AM ester stock in DMSO (Molecular Probes F-14202) Concentration of 2 μM in buffer for a final concentration of 1 μM in Assay. 20% Pluronic Acid Solution stock, with concentration of 0.04% in Buffer, 0.02% in Assay.
65 μL of 2 mM Fluo-4AM are mixed with 130 μL of 20% Pluronic Acid. The resulting solution and 650 μL FBS is added to the assay buffer for a total volume of 65 mL. Positive Controls: 4-Br-A23187: 10 mM in DMSO; final concentration […]. Acetylcholine: 10 mM in water, working stock at both 20 μM and 30 μM in assay buffer, final concentration of 10 μM. This is used to check the maximum stimulation of the CHOK1/hM1 cells. 20 μM (2×) acetylcholine is added in the preincubation part of the assay, and the 30 μM (3×) stock is added in the second part. (EC20)Acetylcholine: 10 mM in water, working stock of 9 nM (3×), and final concentration in assay is 3 nM. This is used after the preincubation with test compounds. Addition of the EC20 Acetylcholine to each well with a test compound will ascertain any modulator activity. 24 wells contain 3 nM Acetylcholine alone as a control.
Determining Activity of Putative Compounds:
Screening Plate Compounds are titrated in 96-well plates (columns 2-11), 100% DMSO, started at a concentration of 15 mM (150× stock concentration), and 3-fold serial dilutions using Genesis Freedom200 System. Four 96-well plates are combined into a 384-well plate using Mosquito Nanoliter Pipetting System by transferring 1 μl of serial diluted compounds to each well, and 1 mM acetylcholine (100× stock concentration) were added as a control. Using Temo, 49 μl assay buffer is added to each well of the 384-well plate right before assay.
In a 96-well Whatman 2 ml Uniplate, 9 nM Acetylcholine (3×) is pipetted into wells corresponding to the screening compounds, and into control wells. The 30 μM acetylcholine control (3×) is added into control wells, and the 3× agonist plate is transferred into a 384 well plate.
Cells are washed three times with 100 μL of buffer, leaving 30 μL of buffer in each well. Using Multimek, 30 μL of Dye Loading Buffer is added into each well and incubated at 37° C., 5% CO2 for up to one hr.
After 60 min, the cells are washed three times with 100 μL of buffer, leaving 30 μL of buffer in each well. The cell plate, screening plate, and agonist addition plates are placed on the platform in the FLIPR and the door closed. A signal test to check background fluorescence and basal fluorescence signal is performed. Laser intensity is adjusted if necessary. […]

Row | EC50 [nM] | SMILES
1 | 10.5 | O=C1c2cc(Cc3ccc(C4CC4)nc3)c3cccnc3c2CN1[C@H]1CCCC[C@@H]1O [Example 25, 5-[(6-Cyclopropylpyridin-3-yl)methyl]-8-[(1S,2S)-2-hydroxycyclohexyl-8,9-dihydro-7H-pyrrolo 3,4-h]quinolin-7-one]
2 | 29 | O=C1c2nc(Cc3ccc(-n4cccn4)nc3)c3ccccc3c2CN1[C@H]1CCCC[C@@H]1O (racemic) [Example 17, (±)-2-[trans-2-Hydroxycyclohexyl]-5-{[6-(1H-pyrazol-1-yl)pyridine-3-yl]methyl}-1,2-dihydro-3H-pyrrolo[3,4-c]isoquinoline-3-one]
3 | 15 | O=CCC1c2c(cc(Cc3ccc(Cl)nc3)c3cccnc23)C(=O)N1[C@H]1CCCC[C@@H]1O (stereo partly drawn) [Example 22, {5-[(6-Chloropyridin-3-yl)methyl]-8-[(1S,2S)-2-hydroxycyclohexyl]-7-oxo-8,9-dihydro-7H-pyrrolo[3,4-h]quinolin-9-yl}acetaldehyde]
4 | 310 | O=C1c2cc(Cc3ccc(Cl)nc3)c3ccccc3c2CN1[C@H]1CCCC[C@@H]1F [Example 4, 5-[(6-Chloropyridin-3-yl)methyl]-2-[(2S)-2-fluorocyclohexyl]-1,2-dihydro-3H-benzo[e]isoindol-3-one]
5 | 53 | COc1ccc(Cc2cc3c(c4ccccc24)CN([C@H]2CCCC[C@@H]2O)C3=O)cc1 [Example 1, 2-[(1S,2S)-2-Hydroxycyclohexyl]-5-(4-methoxybenzyl)-1,2-dihydro-3H-benzo[e]isoindol-3-one]
6 | 99 | CN(C)CCC1c2c(cc(Cc3ccc(Cl)nc3)c3cccnc23)C(=O)N1[C@H]1CCCC[C@@H]1O (stereo partly drawn) [Example 23, 5-[(6-Chloropyridin-3-yl)methyl]-9-[2-(dimethylamino)ethyl]-8-[(1S,2S)-2-hydroxycyclohexyl]-8,9-dihydro-7H-pyrrolo[3,4-h]quinolin-7-one]
7 | 200 | O=C1CCC(Cc2cc3c(c4ncccc24)CN([C@H]2CCCC[C@@H]2O)C3=O)CN1 (stereo partly drawn) [Example 20, 8-[(1S,2S)-2-Hydroxycyclohexyl]-5-[(6-oxopiperidin-3-yl)methyl]-3,9-dihydro-7H-pyrrolo[3,4-h]quinolin-7-one]
8 | 20 | O=C1c2cc(Cc3ccc(O)nc3)c3ccccc3c2CN1[C@H]1CCOC[C@@H]1O [Example 13, 1,5-Anhydro-2,3-dideoxy-3-{3-oxo-5-[(6-oxo-1,6-dihydropyridin-3-yl)methyl]-1,3-dihydro-2H-benzo[e]isoindol-2-yl}-L-threo-pentitol]
9 | 19 | O=C1c2cc(Cc3ccc(Cl)nc3)c3cccnc3c2C(CC(O)CO)N1[C@H]1CCCC[C@@H]1O (stereo partly drawn) [Example 21, 5-[(6-Chloropyridin-3-yl)methyl]-9-(2,3-dihydroxypropyl)-8-[(1S,2S)-2-hydroxycyclohexyl]-8,9-dihydro-7H-pyrrolo[3,4-h]quinolin-7-one]
10 | 665 | CC1c2c(cc(Cc3ccc(Cl)nc3)c3ccccc23)C(=O)N1c1ccccc1F (racemic) [Example 15, (±)-5-[(6-Chloropyridin-3-yl)methyl]-2-(2-fluorophenyl)-1-methyl-1,2-dihydro-3H-benzo[e]isoinol-3-one]
11 | 18 | Cc1ccc(Cc2cc3c(c4ccccc24)CN([C@H]2CCCC[C@@H]2O)C3=O)cn1 [Example 2, 2-[(1S,2S)-2-Hydroxycyclohexyl]-5-[(6-methylpyridin-3-yl)methyl]-1,2-dihydro-3H-benzo[e]isoindol-3-one]
12 | 310 | COc1ccc(Cc2cc3c(c4ncccc24)C(C)(C)N([C@H]2CCCC[C@@H]2O)C3=O)cn1 [Example 18, 8-[(1S,2S)-2-Hydroxycyclohexyl]-5-[(6-methoxypyridin-3-yl)methyl]-9,9-dimethyl-8,9-dihydro-7H-pyrrolo[3,4-h]quinolin-7-one]
13 | 12 | O=C1c2cc(Cc3ccc(Cl)nc3)c3ccccc3c2CN1[C@H]1CCOC[C@@H]1O [Example 8, 5-[(6-Chloropyridin-3-yl)methyl]-2-[(3R,4S)-3-hydroxytetrahydro-2H-pyran-4-yl]-1,2-dihydro-3H-benzo[e]isoindol-3-one]
14 | 41 | O=C1c2cc(Cc3ccc(OCc4ccccc4)nc3)c3cccnc3c2CN1[C@H]1CCCC[C@@H]1O [Example 19]
15 | 52 | COc1ccc(Cc2cc3c(c4ccccc24)CN([C@H]2COCC[C@@H]2O)C3=O)cn1 [Example 11, 2-[(3S,4S)-4-Hydroxytetrahydro-2H-pyran-3-yl]-5-[(6-methoxypyridin-3-yl)methyl]-1,2-dihydro-3H-benzo[e]isoindol-3-one]
16 | 14 | O=C1c2cc(Cc3ccc(N4CCOCC4)nc3)c3ccccc3c2CN1[C@H]1CCCC[C@@H]1O [Example 7, 2-[(1S,2S)-2-Hydroxycyclohexyl]-5-[(6-morpholin-4-ylpyridin-3-yl)methyl]-1,2-dihydro-3H-benzo[e]isoindol-3-one]
17 | 11 | C=Cc1ccc(Cc2cc3c(c4ccccc24)CN([C@H]2CCCC[C@@H]2O)C3=O)cn1 [Example 3, 2-[(1S,2S)-2-Hydroxycyclohexyl]-5-[(6-vinylpyridin-3-yl)methyl]-1,2-dihydro-3H-benzo[e]isoindol-3-one]
18 | 7.4 | O=C1c2cc(Cc3ccc(Cl)nc3)c3cccnc3c2C(CCO)N1[C@H]1CCCC[C@@H]1O (stereo partly drawn) [Example 24, 5-[(6-Chloropyridin-3-yl)methyl]-8-[(1S,2S)-2-hydroxycyclohexyl]-9-(2-hydroxyethyl)-8,9-dihydro-7H-pyrrolo[3,4-h]quinolin-7-one]
19 | 144 | COc1ccc(Cc2cc3c(c4ccccc24)CN(c2ncccc2C(F)(F)F)C3=O)cn1 [Example 14, 5-[(6-Methoxypyridin-3-yl)methyl]-2-[3-(trifluoromethyl)pyridin-2-yl]-1,2-dihydro-3H-benzo[e]isoindol-3-one]
20 | 5200 | CC(=O)O[C@H]1COCC[C@@H]1N1Cc2c(cc(Cc3ccc(O)nc3)c3ccccc23)C1=O [Example 12, 2-O-Acetyl-1,5-anhydro-3,4-dideoxy-3-{3-oxo-5-[(6-oxo-1,6-dihydroyridin-3-yl)methyl]-1,3-dihydro-2H-benzo[e]isoindol-2-yl)-L-threo-pentitol]
21 | 11 | O=C1c2cc(Cc3cccnc3)c3ccccc3c2CN1[C@H]1CCCC[C@@H]1O [Example 6, 2-[(1S,2S)-2-Hydroxycyclohexyl]-5-(pyridin-3-ylmethyl)-1,2-dihydro-3H-benzo[e]isoindol-3-one]
22 | 49 | O=C1c2nc(Cc3ccc(Cl)nc3)c3ccccc3c2CN1[C@H]1CCCC[C@@H]1O (racemic) [Example 16, (±)-5-[(6-Chloropyridin-3-yl)methyl]-2-[trans-2-hydroxycyclohexyl]-1,2-dihydro-3H-pyrrolo[3,4-c]isoquinoline-3-one]
